Experiments:
Canis familiaris [1] = assay: Inhibition of carbachol-induced increase of intravesical pressure in Beagle dog OAB model at 32 ug/kg,; format: functional; conditions: Canis lupus familiaris
[2] = Oral bioavailability in rat at 0.83 mg/kg; format: ADME, organism-based; conditions: in vivo
[3] = Protein binding in Beagle dog serum at 32 ug/kg, iv; format: ADME, organism-based, Canis lupus familiaris; conditions: 0.032 mg/kg, read-out: PB (converted)
[4] = Oral bioavailability in dog at 0.83 mg/kg; format: ADME, organism-based, Canis lupus familiaris; conditions: in vivo
[5] = Oral bioavailability in monkey at 0.83 mg/kg; format: ADME, organism-based, Macaca mulatta; conditions: rhesus monkey, in vivo
[6] = Oral bioavailability in dog at 0.1 mg/kg by cassette assay; format: ADME, organism-based, Canis lupus familiaris; conditions: in vivo
[7] = Terminal half life in rat at 0.51 mg/kg, iv by cassette assay; format: ADME, organism-based; design: dose 0.51 mg/kg, route intravenous; conditions: in vivo
[8] = Oral bioavailability in monkey at 0.32 mg/kg by cassette assay; format: ADME, organism-based, Macaca mulatta; conditions: rhesus monkey, in vivo
Canis familiaris [9] = assay: Ratio of Cmax for drug to Cmax for 3-[((7S)-7-{[(2R)-2-(3-Chlorophenyl)-2-hydroxyethyl]amino}-5,6,7,8-tetrahydro-2-naphthalenyl)oxy]benzoic acid hydrochloride in dog at 0.1 or 0.20 mg/kg, po by cassette dosing assay; format: ADME, organism-based, Canis lupus familiaris; design: dose 0.2 mg/kg, route oral; conditions: in vivo, 0.2 mg/kg
[10] = Terminal half life in monkey at 0.32 mg/kg, iv by cassette assay; format: ADME, organism-based, Macaca mulatta; design: dose 0.32 mg/kg, route intravenous; conditions: rhesus monkey, in vivo
Homo sapiens = organism: Homo sapiens; assay: Ratio of EC50 for human cloned beta-1 adrenergic receptor to EC50 for human cloned beta3 adrenergic receptor
[11] = molecular target: Beta-2 adrenergic receptor (Homo sapiens, UniProt P07550); assay: Agonist activity at human beta2 adrenergic receptor expressed in CHO cells assessed as cAMP accumulation; format: functional, cell-based
Beta-2 adrenergic receptor, sequence (P07550 whole entry): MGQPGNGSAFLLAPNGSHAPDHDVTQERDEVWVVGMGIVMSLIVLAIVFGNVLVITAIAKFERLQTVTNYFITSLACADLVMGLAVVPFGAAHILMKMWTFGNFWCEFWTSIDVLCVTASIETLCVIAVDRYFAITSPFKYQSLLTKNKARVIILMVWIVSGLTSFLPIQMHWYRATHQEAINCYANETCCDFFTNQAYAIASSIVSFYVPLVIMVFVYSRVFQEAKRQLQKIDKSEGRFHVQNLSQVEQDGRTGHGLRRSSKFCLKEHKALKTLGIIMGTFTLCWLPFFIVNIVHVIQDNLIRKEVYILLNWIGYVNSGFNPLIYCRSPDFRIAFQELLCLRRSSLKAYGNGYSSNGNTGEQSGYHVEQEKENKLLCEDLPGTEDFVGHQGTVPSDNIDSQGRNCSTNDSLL

Canis familiaris [12] = assay: Ratio of AUC for drug to AUC for 3-[((7S)-7-{[(2R)-2-(3-Chlorophenyl)-2-hydroxyethyl]amino}-5,6,7,8-tetrahydro-2-naphthalenyl)oxy]benzoic acid hydrochloride in dog at 0.1 or 0.20 mg/kg, po by cassette dosing assay; format: ADME, organism-based, Canis lupus familiaris; design: dose 0.2 mg/kg, route oral; conditions: in vivo, 0.2 mg/kg
[13] = Total clearance in rat at 0.51 mg/kg, iv by cassette assay; format: ADME, organism-based; design: dose 0.51 mg/kg, route intravenous; conditions: in vivo
[14] = Cmax in rat at 1.0 mg/kg, po by cassette assay; format: ADME, organism-based; design: dose 1 mg/kg, route oral; conditions: in vivo
[15] = molecular target: Beta-3 adrenergic receptor (Homo sapiens, UniProt P13945); assay: Agonist activity at human cloned beta3 adrenergic receptor expressed in CHO cells assessed as cAMP accumulation; format: functional, cell-based
Beta-3 adrenergic receptor (Homo sapiens, UniProt P13945), sequence (P13945 whole entry): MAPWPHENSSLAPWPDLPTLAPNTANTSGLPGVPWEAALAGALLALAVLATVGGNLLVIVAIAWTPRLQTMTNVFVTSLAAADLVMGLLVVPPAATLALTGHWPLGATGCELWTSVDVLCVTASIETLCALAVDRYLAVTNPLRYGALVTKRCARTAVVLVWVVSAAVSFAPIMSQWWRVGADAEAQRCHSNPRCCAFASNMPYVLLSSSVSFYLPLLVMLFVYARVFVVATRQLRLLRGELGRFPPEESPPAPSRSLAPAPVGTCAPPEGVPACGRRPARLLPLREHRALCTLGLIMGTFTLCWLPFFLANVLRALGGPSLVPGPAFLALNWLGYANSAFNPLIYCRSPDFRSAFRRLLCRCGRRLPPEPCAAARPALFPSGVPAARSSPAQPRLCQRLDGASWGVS

[16] = Terminal half life in dog at 0.1 mg/kg, iv by cassette assay; format: ADME, organism-based, Canis lupus familiaris; design: dose 0.1 mg/kg, route intravenous; conditions: in vivo
[17] = Selectivity for human beta3 adrenergic receptor over dog beta3 adrenergic receptor
[18] = Cmax in monkey at 1.0 mg/kg, po by cassette assay; format: ADME, organism-based, Macaca mulatta; design: dose 1 mg/kg, route oral; conditions: rhesus monkey, in vivo
[19] = AUC (0 to 24 hrs) in dog at 0.2 mg/kg, po by cassette assay; format: ADME, organism-based, Canis lupus familiaris; design: time < 24 hr, dose 0.2 mg/kg, route oral; conditions: plasma
[20] = Oral bioavailability in rat at 0.51 mg/kg by cassette assay; format: ADME, organism-based; conditions: in vivo
[21] = AUC (0 to 24 hrs) in monkey at 1.0 mg/kg, po by cassette assay; format: ADME, organism-based, Macaca mulatta; design: time < 24 hr, dose 1 mg/kg, route oral; conditions: rhesus monkey, plasma
[22] = molecular target: Beta-1 adrenergic receptor (Homo sapiens, UniProt P08588)
Beta-1 adrenergic receptor, sequence (P08588 whole entry): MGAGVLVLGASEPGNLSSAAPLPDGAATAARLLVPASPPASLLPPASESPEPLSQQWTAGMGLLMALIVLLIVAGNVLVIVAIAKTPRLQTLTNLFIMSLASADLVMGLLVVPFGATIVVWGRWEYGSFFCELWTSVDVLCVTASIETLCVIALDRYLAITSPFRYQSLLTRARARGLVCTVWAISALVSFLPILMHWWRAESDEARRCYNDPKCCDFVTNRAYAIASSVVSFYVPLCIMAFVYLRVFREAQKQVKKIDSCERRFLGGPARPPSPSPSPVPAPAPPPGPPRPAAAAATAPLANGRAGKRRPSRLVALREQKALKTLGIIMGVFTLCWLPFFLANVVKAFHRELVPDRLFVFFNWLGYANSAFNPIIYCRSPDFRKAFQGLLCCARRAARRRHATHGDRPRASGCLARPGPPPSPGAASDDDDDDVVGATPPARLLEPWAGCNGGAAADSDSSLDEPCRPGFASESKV
Description: Agonist activity at human cloned beta-1 adrenergic receptor expressed in CHO cells assessed as cAMP accumulation

[23] = Total clearance in monkey at 0.32 mg/kg, iv by cassette assay; format: ADME, organism-based, Macaca mulatta; design: dose 0.32 mg/kg, route intravenous; conditions: rhesus monkey, in vivo
[24] = AUC (0 to 24 hrs) in rat at 1.0 mg/kg, po by cassette assay; format: ADME, organism-based; design: time < 24 hr, dose 1 mg/kg, route oral; conditions: plasma
[25] = Cmax in dog at 0.2 mg/kg, po by cassette assay; format: ADME, organism-based, Canis lupus familiaris; design: dose 0.2 mg/kg, route oral; conditions: in vivo
[26] = Total clearance in dog at 0.1 mg/kg, iv by cassette assay; format: ADME, organism-based, Canis lupus familiaris; design: dose 0.1 mg/kg, route intravenous; conditions: in vivo
[27] = molecular target: Beta-3 adrenergic receptor (Canis lupus familiaris, UniProt O02662); assay: Agonist activity at dog beta3 adrenergic receptor expressed in CHO cells assessed as cAMP accumulation; format: functional, cell-based
Beta-3 adrenergic receptor (Canis lupus familiaris, UniProt O02662), sequence (O02662 whole entry): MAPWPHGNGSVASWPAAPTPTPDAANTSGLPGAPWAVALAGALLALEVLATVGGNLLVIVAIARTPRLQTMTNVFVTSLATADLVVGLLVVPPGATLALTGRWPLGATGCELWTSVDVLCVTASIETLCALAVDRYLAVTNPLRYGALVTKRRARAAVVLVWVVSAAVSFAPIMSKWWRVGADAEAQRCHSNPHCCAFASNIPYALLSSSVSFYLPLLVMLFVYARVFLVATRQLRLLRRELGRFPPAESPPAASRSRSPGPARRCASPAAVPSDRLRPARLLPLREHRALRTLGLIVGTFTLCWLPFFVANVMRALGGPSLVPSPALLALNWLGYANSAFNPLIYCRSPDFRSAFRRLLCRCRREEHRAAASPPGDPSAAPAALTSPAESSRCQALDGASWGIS

[28] = AUC (0 to 24 hrs) in dog at 0.21 mg/kg, po by cassette assay; format: ADME, organism-based, Canis lupus familiaris; design: time < 24 hr, dose 0.21 mg/kg, route oral; conditions: plasma
[29] = Cmax in dog at 0.21 mg/kg, po by cassette assay; format: ADME, organism-based, Canis lupus familiaris; design: dose 0.21 mg/kg, route oral; conditions: in vivo
[30] = Oral bioavailability in rat at 0.50 mg/kg by cassette assay; format: ADME, organism-based; conditions: in vivo, 0.5 mg/kg
[31] = Terminal half life in rat at 0.50 mg/kg, iv by cassette assay; format: ADME, organism-based; design: dose 0.5 mg/kg, route intravenous; conditions: in vivo, 0.5 mg/kg
[32] = Cmax in rat at 0.52 mg/kg, po by cassette assay; format: ADME, organism-based; design: dose 0.52 mg/kg, route oral; conditions: in vivo
[33] = Total clearance in rat at 0.50 mg/kg, iv by cassette assay; format: ADME, organism-based; design: dose 0.5 mg/kg, route intravenous; conditions: in vivo, 0.5 mg/kg
[34] = AUC (0 to 24 hrs) in rat at 0.52 mg/kg, po by cassette assay; format: ADME, organism-based; design: time < 24 hr, dose 0.52 mg/kg, route oral; conditions: plasma

SMILES | inhibition in vivo at 0.032 mg/kg (Canis familiaris [1]) [%] | fraction unbound [3] | bioavailability [6] [%] | bioavailability [8] [%] | Ratio (Canis familiaris [9]) | half-life [10] [h] | Ratio EC50 (Homo sapiens) | EC50 [11] [nM] | Ratio AUC (Canis familiaris [12]) | EC50 [15] [nM] | half-life [16] [h] | Cmax [18] [ng/mL] | AUC(0-t) at 24 h [21] [ng·h/mL] | EC50 [22] [nM] | clearance [23] [mL/min/kg] | clearance [26] [mL/min/kg] | also measured
CCOC(=O)COc1ccc2c(c1)C[C@@H](NC[C@H](O)c1cccc(Cl)c1)CCC2 | 40.8 | 0.06 |  |  |  |  |  |  |  |  |  |  |  |  |  |  | bioavailability [2]: 29%; bioavailability [4]: 73%; bioavailability [5]: 35%
COc1ccc(Oc2ccc3c(c2)C[C@@H](NC[C@H](O)c2ccc(Cl)nc2)CC3)cc1C(=O)O | 57 | 0.1 | 76.8 | 28.8 | 0.5 | 8.2 | > 277 | > 1000 | 0.48 | 3.6 | 5.9 | 59 | 313 | > 1000 | 15.7 | 3.1 | half-life [7]: 15.3 h; clearance [13]: 2.5 mL/min/kg; Cmax [14]: 164 ng/mL; Selectivity ratio [17]: 12.8; AUC(0-t) at 24 h [19]: 860 ng·h/mL; bioavailability [20]: 27.3%; AUC(0-t) at 24 h [24]: 1940 ng·h/mL; Cmax [25]: 64.4 ng/mL; EC50 [27]: 46 nM
COc1ccc(Oc2ccc3c(c2)C[C@@H](NC[C@H](O)c2ccc(Cl)cc2)CC3)cc1C(=O)O |  |  | 64.2 | 48 | 0.64 | 6.7 | > 217 | > 1000 | 0.76 | 4.7 | 8.3 | 319 | 1560 | > 1000 | 5.3 | 1.4 | AUC(0-t) at 24 h [28]: 1530 ng·h/mL; Cmax [29]: 103 ng/mL; bioavailability [30]: > 95%; half-life [31]: 11.9 h; Cmax [32]: 367 ng/mL; clearance [33]: 2 mL/min/kg; AUC(0-t) at 24 h [34]: 4580 ng·h/mL

Reference: ChEMBL document CHEMBL1155947, “Discovery of a novel series of benzoic acid derivatives as potent and selective human beta3 adrenergic receptor agonists with good oral bioavailability. 3. Phenylethanolaminotetraline (PEAT) skeleton containing biphenyl or biphenyl ether moiety” (J Med Chem, 2008)
